Measured values published in patent publication EP1247803A2, “Indolinone compounds suitable for modulation of protein kinases” (Sugen, Inc., priority 1996, dated 1998).

What was measured:
FLK-1 receptor = molecular target: T1, FLK-1 receptor (Mus musculus, UniProt P35918); test: FLK-1 ELISA (kinase activity of the FLK-1 receptor in FLK-1/NIH3T3 cells, VEGF stimulated); type: cell-based
T1 construct: expressed in transfected cells; host or cells: NIH3T3 C7#3
Method in brief: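 FLK-1-expressing NIH3T3 C7#3 cells, starved overnight in 0.1% FBS medium, were treated with compounds at a 1:200 final dilution (0.5% DMSO) for 2 h at 37 °C, with VEGF stimulation. FLK-1 kinase activity was read by ELISA on anti-rabbit IgG plates using affinity-purified anti-FLK-1 antiserum.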

MET = MET biochemical kinase assay; set-up: species or system human; concentration or dose not given beside the values
Method in brief: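 Immunocaptured MET autophosphorylation, read colorimetrically (TMB) via HRP anti-phosphotyrosine antibody. Kinase reaction initiated with buffer containing ATP and divalent metals after compound addition to plate-bound receptor from lysates.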

T1 sequence (P35918 20-1345): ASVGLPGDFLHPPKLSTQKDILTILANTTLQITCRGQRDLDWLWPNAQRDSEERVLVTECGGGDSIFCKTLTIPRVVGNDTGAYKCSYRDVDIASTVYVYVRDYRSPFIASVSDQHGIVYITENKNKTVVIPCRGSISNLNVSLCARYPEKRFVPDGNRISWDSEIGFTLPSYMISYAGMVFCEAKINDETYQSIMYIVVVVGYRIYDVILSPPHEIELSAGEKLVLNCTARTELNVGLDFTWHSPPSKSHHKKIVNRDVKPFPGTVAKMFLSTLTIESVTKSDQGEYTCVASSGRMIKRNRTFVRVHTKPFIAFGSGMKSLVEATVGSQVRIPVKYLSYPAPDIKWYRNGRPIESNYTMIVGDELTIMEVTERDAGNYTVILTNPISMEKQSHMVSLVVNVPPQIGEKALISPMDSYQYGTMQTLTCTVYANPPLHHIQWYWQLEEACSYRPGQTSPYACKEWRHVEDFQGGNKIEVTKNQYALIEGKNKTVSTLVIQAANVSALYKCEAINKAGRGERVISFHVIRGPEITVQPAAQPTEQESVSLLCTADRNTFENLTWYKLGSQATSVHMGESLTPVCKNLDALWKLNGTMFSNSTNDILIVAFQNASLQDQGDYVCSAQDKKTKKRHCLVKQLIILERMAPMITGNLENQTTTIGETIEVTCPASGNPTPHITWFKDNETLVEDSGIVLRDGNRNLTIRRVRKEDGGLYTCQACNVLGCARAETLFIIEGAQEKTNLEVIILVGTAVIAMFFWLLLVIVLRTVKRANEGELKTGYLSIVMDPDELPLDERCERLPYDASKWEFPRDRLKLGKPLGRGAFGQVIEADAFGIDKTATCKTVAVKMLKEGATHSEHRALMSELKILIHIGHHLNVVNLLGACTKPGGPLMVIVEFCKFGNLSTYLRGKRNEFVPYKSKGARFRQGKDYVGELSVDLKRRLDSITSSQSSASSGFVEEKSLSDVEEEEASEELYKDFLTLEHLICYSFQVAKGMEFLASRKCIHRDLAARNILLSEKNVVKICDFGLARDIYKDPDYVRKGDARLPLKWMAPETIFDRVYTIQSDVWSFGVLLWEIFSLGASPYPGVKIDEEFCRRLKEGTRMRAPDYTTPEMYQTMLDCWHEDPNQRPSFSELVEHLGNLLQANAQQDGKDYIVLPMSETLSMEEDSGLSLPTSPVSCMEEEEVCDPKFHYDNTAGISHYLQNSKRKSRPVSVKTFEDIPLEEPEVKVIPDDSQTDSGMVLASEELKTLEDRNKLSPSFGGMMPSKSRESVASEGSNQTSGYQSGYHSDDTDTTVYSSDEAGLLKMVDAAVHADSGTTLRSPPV

SMILES	Fik Kinase %Inhibition (FLK-1 receptor) [%]	Met Kinase % Inhibition (MET) [%]
CCOc1ccccc1C=C1C(=O)Nc2ccc(I)cc21 [10717/B02]	5.0	87.5
O=C1Nc2ccc(I)cc2C1=Cc1cccs1 [10717/B03]	-8.8	90.5
Cn1cccc1C=C1C(=O)Nc2ccc(I)cc21 [10717/B04]	-18.3	70.0
O=C1Nc2ccc(I)cc2C1=Cc1ccc(F)cc1 [10717/B05]	1.0	87.4
O=C1Nc2ccc(I)cc2C1=Cc1c[nH]c2ccccc12 [10717/B06]	5.4	89.5
CCOC(=O)c1c(C)[nH]c(C=C2C(=O)Nc3ccc(S(=O)(=O)N4CCOCC4)cc32)c1C [10718/F02]	20.1	66.7
COc1cc(Br)c(O)c(C=C2C(=O)Nc3ccc(S(=O)(=O)N4CCOCC4)cc32)c1 [10718/F03]	-0.2	87.9
O=C1Nc2ccc(S(=O)(=O)N3CCOCC3)cc2C1=Cc1ccc2ccccc2c1O [10718/F04]	9.4	78.1
CCOC(=O)CCc1c(C(=O)OCC)[nH]c(C=C2C(=O)Nc3ccc(S(=O)(=O)N4CCOCC4)cc32)c1CC(=O)OCC [10718/F05]	19.5	53.7
CCOC(=O)c1cc(C=C2C(=O)Nc3ccc(S(=O)(=O)N4CCOCC4)cc32)oc1C [10718/F06]	18.3	42.5
COC(=O)c1[nH]c(C)c(C=C2C(=O)Nc3ccc(S(=O)(=O)N4CCOCC4)cc32)c1C(=O)OC [10718/F07]	16.5	67.9
O=C1Nc2ccc(S(=O)(=O)N3CCOCC3)cc2C1=Cc1ccc(Cl)c([N+](=O)[O-])c1 [10718/F08]	15.3	28.4
Cc1c(O)ccc(C=C2C(=O)Nc3ccc(S(=O)(=O)N4CCOCC4)cc32)c1O [10718/F09]	-3.0	52.7
O=C1Nc2ccc(S(=O)(=O)N3CCOCC3)cc2C1=Cc1ccco1 [10718/F10]	17.9	23.7
O=C1Nc2ccc(S(=O)(=O)N3CCOCC3)cc2C1=Cc1ccc([N+](=O)[O-])o1 [10718/F11]	10.1	31.3
CCOC(=O)c1c(C)[nH]c(C=C2C(=O)Nc3ccc(CCCl)cc32)c1C [10718/G02]	-2.5	67.7
COc1cc(Br)c(O)c(C=C2C(=O)Nc3ccc(CCCl)cc32)c1 [10718/G03]	-4.7	77.9
O=C1Nc2ccc(CCCl)cc2C1=Cc1ccc2ccccc2c1O [10718/G04]	1.8	78.1
CCOC(=O)CCc1c(C(=O)OCC)[nH]c(C=C2C(=O)Nc3ccc(CCCl)cc32)c1CC(=O)OCC [10718/G05]	3.7	60.3
CCOC(=O)c1cc(C=C2C(=O)Nc3ccc(CCCl)cc32)oc1C [10718/G06]	9.8	61.0

SMILES	Fik Kinase %Inhibition (FLK-1 receptor) [%]	Met Kinase % Inhibition (MET) [%]
COC(=O)c1[nH]c(C)c(C=C2C(=O)Nc3ccc(CCCl)cc32)c1C(=O)OC [10718/G07]	11.4	52.0
O=C1Nc2ccc(CCCl)cc2C1=Cc1ccc(Cl)c([N+](=O)[O-])c1 [10718/G08]	6.1	17.5
Cc1c(O)ccc(C=C2C(=O)Nc3ccc(CCCl)cc32)c1O [10718/G09]	-12.8	27.0
O=C1Nc2ccc(CCCl)cc2C1=Cc1ccco1 [10718/G10]	7.1	10.8
O=C1Nc2ccc(CCCl)cc2C1=Cc1ccc([N+](=O)[O-])o1 [10718/G11]	15.6	3.0
CCOc1ccc(C=C2C(=O)Nc3c(Br)cc(Br)cc32)cc1OC [10719/A02]	21.4	40.9
O=C1Nc2c(Br)cc(Br)cc2C1=Cc1ccc(O)c(O)c1 [10719/A03]	3.9	84.1
COc1ccc(C=C2C(=O)Nc3c(Br)cc(Br)cc32)c(OC)c1 [10719/A04]	19.2	22.9
CCc1c(C)[nH]c(C=C2C(=O)Nc3c(Br)cc(Br)cc32)c1C [10719/A05]	10.0	39.6
COc1cc(OC)c(C=C2C(=O)Nc3c(Br)cc(Br)cc32)c(OC)c1 [10719/A06]	14.0	-7.0
O=C1Nc2c(Br)cc(Br)cc2C1=Cc1ccc(O)cc1 [10719/A07]	21.3	68.1
CN(C)c1ccc(C=C2C(=O)Nc3c(Br)cc(Br)cc32)cc1 [10719/A08]	11.9	75.5
O=C1Nc2c(Br)cc(Br)cc2C1=Cc1ccc(F)cc1Cl [10719/A09]	12.3	47.0
O=C1Nc2c(Br)cc(Br)cc2C1=Cc1cccc([N+](=O)[O-])c1 [10719/A10]	10.9	13.4
O=C1Nc2c(Br)cc(Br)cc2C1=Cc1ccc(F)cc1C(F)(F)F [10719/A11]	7.4	34.9
CCOc1ccc(C=C2C(=O)Nc3ccc(I)cc32)cc1OC [10719/B02]	11.5	47.0
O=C1Nc2ccc(I)cc2C1=Cc1ccc(O)c(O)c1 [10719/B03]	14.2	85.8
COc1ccc(C=C2C(=O)Nc3ccc(I)cc32)c(OC)c1 [10719/B04]	24.9	38.4
CCc1c(C)[nH]c(C=C2C(=O)Nc3ccc(I)cc32)c1C [10719/B05]	17.7	33.6
COc1cc(OC)c(C=C2C(=O)Nc3ccc(I)cc32)c(OC)c1 [10719/B06]	21.3	22.5

SMILES	Fik Kinase %Inhibition (FLK-1 receptor) [%]	Met Kinase % Inhibition (MET) [%]
O=C1Nc2ccc(I)cc2C1=Cc1ccc(O)cc1 [10719/B07]	12.5	52.2
CN(C)c1ccc(C=C2C(=O)Nc3ccc(I)cc32)cc1 [10719/B08]	4.0	33.2
O=C1Nc2ccc(I)cc2C1=Cc1ccc(F)cc1Cl [10719/B09]	11.3	23.5
O=C1Nc2ccc(I)cc2C1=Cc1cccc([N+](=O)[O-])c1 [10719/B10]	1.1	53.4
O=C1Nc2ccc(I)cc2C1=Cc1ccc(F)cc1C(F)(F)F [10719/B11]	11.2	36.5
CCOc1ccc(C=C2C(=O)Nc3ccc(Br)c(C)c32)cc1OC [10719/C02]	4.1	41.3
Cc1c(Br)ccc2c1C(=Cc1ccc(O)c(O)c1)C(=O)N2 [10719/C03]	15.3	69.1
COc1ccc(C=C2C(=O)Nc3ccc(Br)c(C)c32)c(OC)c1 [10719/C04]	59.9	14.7
CCc1c(C)[nH]c(C=C2C(=O)Nc3ccc(Br)c(C)c32)c1C [10719/C05]	25.6	35.5
COc1cc(OC)c(C=C2C(=O)Nc3ccc(Br)c(C)c32)c(OC)c1 [10719/C06]	47.7	18.4
Cc1c(Br)ccc2c1C(=Cc1ccc(O)cc1)C(=O)N2 [10719/C07]	31.2	7.7
Cc1c(Br)ccc2c1C(=Cc1ccc(N(C)C)cc1)C(=O)N2 [10719/C08]	15.0	57.5
Cc1c(Br)ccc2c1C(=Cc1ccc(F)cc1Cl)C(=O)N2 [10719/C09]	23.5	8.9
O=C1Nc2ccc(S(=O)(=O)Nc3ccc(C(F)(F)F)cc3)cc2C1=Cc1cc(Cl)ccc1O [10734/E04]	10.7	88.9
CCN(CC)c1ccc(C=C2C(=O)Nc3ccc(S(=O)(=O)Nc4ccc(C(F)(F)F)cc4)cc32)c(O)c1 [10734/E05]	10.6	63.6
O=C1Nc2ccc(S(=O)(=O)Nc3ccc(C(F)(F)F)cc3)cc2C1=Cc1ccc([N+](=O)[O-])cc1 [10734/E06]	28.4	50.6
O=C1Nc2ccc(S(=O)(=O)Nc3ccc(C(F)(F)F)cc3)cc2C1=Cc1cc(Br)cc(Br)c1O [10734/E07]	27.9	100.8
O=C1Nc2ccc(S(=O)(=O)Nc3ccc(C(F)(F)F)cc3)cc2C1=Cc1cccc(F)c1O [10734/E08]	26.6	89.1
O=C1Nc2ccc(S(=O)(=O)Nc3ccc(C(F)(F)F)cc3)cc2C1=Cc1ccc(O)c(Br)c1 [10734/E09]	8.0	96.2
CC(C)(C)c1ccc(C=C2C(=O)Nc3ccc(S(=O)(=O)Nc4ccc(C(F)(F)F)cc4)cc32)cc1 [10734/E10]	18.5	27.9
